Experimental data published in patent US20210008229A1, “TARGETED PHOTOACOUSTIC AGENTS AND USES THEREOF” (McMaster University, priority 2019, published 2021).
In brackets after ≈: the same amount, converted by molar mass.

Legend:
[1] = test system: sites of high calcium accretion; assay: in vivo photoacoustic imaging of the knee joint (calcium accretion); parameters: species or system Balb/c mice; details: for photoacoustic signal in the knee (or shoulder) joints: in vivo, 1 hour post-injection
Method: The white arrows indicate the knee joint and light grey arrows indicate blood vessels.
Photoacoustic imaging was performed using Vevo LAZR-X (FUJIFILM VisualSonics Inc., Toronto, ON, Canada) Imaging system equipped with a 680-970 nm laser. Mice were anaesthetized with isofluorane and set up on a platform that monitored the respiration rate and the heart rate of the mouse. The hair on the hindlimb was removed while the mouse was anaesthetized. A 30-MHz, linear array ultrasound transducer with integrated fiber optic light delivery (LZ-400 and MX-400, FUJIFILM VisualSonics, Inc.) was positioned laterally overtop the hindlimb knee joint. The integrated fiber bundle delivered 15 to 20 mJ/cm^2 of light to the hindlimb of the mouse.
There are a number of TCO-derived molecules, including antibodies and small molecules, that are available for use as targeting vectors.^16,17,18,19 For a proof of concept study, compound 5 was combined with a TCO-derived bisphosphonate (TCO-BP (6)). TCO-BP has been used to target radiolabeled tetrazines to sites of high calcium accretion. Conveniently, the compound allows testing to be performed in inexpensive healthy mouse models since tetrazine derivatives coupled to TCO-BP should localize to elbow and knee joints where there is elevated turnover of calcium.^16,20,21 Compound 7 was prepared by mixing compounds 5 and 6 at room temperature for 10 min in quantitative yield; highlighting the ease with which new photoacoustic imaging agents can be prepared using this approach.
For in vivo studies, a group of Balb/c mice were administered the parent tetrazine 5 and a second group received the bisphosphonate derivative 7.

[2] = comparison value for ICG; cited from earlier work
plasma proteins = assay: plasma binding study; type: in vitro ADME; details: for Pellet: activity in protein pellet; for Supernatant: activity in supernatant
Source text: FIG. 13 is a plot showing the results of a plasma binding study of TCO-BP labeled with ^99mTc and coupled to a dye-tetrazine conjugate according to an embodiment of the present application. […]

[3] = biodistribution study (gamma counting of tissues and fluids); type: in vivo, BALB/c mice
Method: FIG. 11 is a plot showing biodistribution data for selected fluids and tissues for TCO-BP labeled with ^99mTc and coupled to a dye-tetrazine conjugate according to an embodiment of the present application. Experiments were performed using Balb/c mice (n=3 per time point) and tissues and fluids were collected at 1, 3, 6, and 24 h post administration. Data are expressed as the mean percent injected dose per gram (% ID g−1)±SEM.
(upper plot) and fluorescence spectra and intensity data for blood samples (n=3 for each time point) following the administration of TCO-BP labeled with ^99mTc and coupled to a dye-tetrazine conjugate according to an embodiment of the present application taken at 1, 3, 6, and 24 h p.i. (lower plot).
Biodistribution studies were performed using female BALB/c mice (Charles River, Kingston, N.Y.) at the indicated time points. The mice were administered the agents via tail vein injection with the final volume not exceeding 200 μL. A 5 mg/mL solution of compound 9 (see Scheme 2, below) in 10% ethanol in saline was administered at a dose of 20 mg/kg to all mice (approximately 518 kBq of 9). For all studies, at 1, 3, 6, or 24 h post-injection of the labeled compound, the animals were euthanized by cervical dislocation. Fluids, bone (knee and shoulder), and select tissues were collected, weighed, and counted in a PerkinElmer Wizard 1470 automatic gamma counter. Decay correction was used to normalize organ activity measurements to time of dose preparation for data calculations. Data is expressed as percent injected dose per gram tissue or fluid (% ID/g) or percent injected dose per organ (% ID/O).
Mice were administered 9 (518 kBq) and sacrificed at […] post injection where fluids, bone (knee, shoulder), and other key tissues were collected, weighed, and counted in a gamma counter. The resulting data is shown in FIG. 11 and expressed as percent injected dose per gram of tissue or fluid (% ID g^−1).

[4] = test system: 143B human osteosarcoma xenografts; assay: in vivo photoacoustic imaging of tumor xenografts; parameters: species or system BALB/c nu/nu mice; details: 1 hour post injection versus background before injection; 200 μL of 5 (1 mg)
Method: Red in color images=oxyhemoglobin, Blue in color images=deoxyhemoglobin and Green in color images=the dye-tetrazine conjugate according to an embodiment of the present application. The dashed white lines outline the tumor.
Female BALB/c […] mice (Charles River Laboratories, Kingston, N.Y.) at 4-6 weeks of age were sterile housed and maintained at 24° C. with a 12 h light/dark cycle and were provided autoclaved food and water ad libitum. All procedures were conducted according to the guidelines of the Committee for Research and Ethical Issues of the International Association for the Study of Pain, and guidelines established by the Canadian Council on Animal Care and the McMaster University Animal Research Ethics Board. Female 10-11 week old BALB/c nu/nu mice (Charles River Laboratories, Kingston, N.Y.) were injected with 2.0×10^6 143 B cells in Matrigel:Dulbecco's phosphate-buffered saline (DPBS) (1:1) subcutaneously into the right flank. Photoacoustic studies were performed 10 days following tumor inoculation.
Photoacoustic imaging was performed using Vevo LAZR-X (FUJIFILM VisualSonics Inc., Toronto, ON, Canada) Imaging system equipped with a 680-970 nm laser. Mice were anaesthetized with isofluorane and set up on a platform that monitored the respiration rate and the heart rate of the mouse. The hair on the hindlimb was removed while the mouse was anaesthetized. […]

[5] = solubility / formulation concentration in 10% ethanol in saline; type: physicochemical; details: aqueous with cosolvent or surfactant or cyclodextrin, read-out: concentration formulated (soluble)
Method: Prior to developing and testing a targeted derivative, in vivo imaging studies were performed with 5 and 143B human osteosarcoma xenografts. Compound 5 was soluble in 10% ethanol in saline and formulated at a concentration of 5 mg mL^−1, which conveniently is higher than what can be achieved for ICG (1 mg mL^−1). Prior to injection, tumors were imaged in order to separate the signals arising from oxygenated and deoxygenated hemoglobin, and 5, which are shown in red, blue and green respectively in color images of FIG. 8. Following administration of 200 μL of 5 (1 mg), signal arising from 5 was clearly visible in the tumor as early as 1 hour post-injection (FIG. 8, upper right image). Mice were sacrificed and the tumors were imaged ex vivo (FIG. 8, lower left image) where uptake of the dye within the tumor was clearly evident.

[6] = stability of 5 in plasma (HPLC); type: in vitro ADME; details: murine plasma at 37° C.
Method: Compound 5 was prepared from the commercially available dye IR-783, which is known to produce a strong photoacoustic signal, in only two steps. The first step involved the preparation of the IR-783-aldehyde 3 which was done successfully using a Suzuki-Miyaura coupling between 1 and 2 in the presence of Pd(PPh3)4 and Cs2CO3. A significant number of different catalysts, bases and reaction conditions were screened to maximize the yield of 3 (96%). The aldehyde was subsequently coupled to tetrazine 4, prepared using a literature procedure,^14 to form the hydrazone 5. Following characterization by nuclear magnetic resonance (NMR) spectroscopy, high resolution mass spectrometry (HRMS) and high performance liquid chromatography (HPLC), the stability of 5 in plasma was evaluated.

[7] = target: T1, bovine serum albumin (BSA) (Bos taurus, UniProt P02769); assay: preliminary albumin binding study (absorbance and emission with BSA); details: absorbance and emission of 5 with varying concentrations of BSA
T1 construct: purchased Sigma-Aldrich
T1 sequence (P02769 25-607): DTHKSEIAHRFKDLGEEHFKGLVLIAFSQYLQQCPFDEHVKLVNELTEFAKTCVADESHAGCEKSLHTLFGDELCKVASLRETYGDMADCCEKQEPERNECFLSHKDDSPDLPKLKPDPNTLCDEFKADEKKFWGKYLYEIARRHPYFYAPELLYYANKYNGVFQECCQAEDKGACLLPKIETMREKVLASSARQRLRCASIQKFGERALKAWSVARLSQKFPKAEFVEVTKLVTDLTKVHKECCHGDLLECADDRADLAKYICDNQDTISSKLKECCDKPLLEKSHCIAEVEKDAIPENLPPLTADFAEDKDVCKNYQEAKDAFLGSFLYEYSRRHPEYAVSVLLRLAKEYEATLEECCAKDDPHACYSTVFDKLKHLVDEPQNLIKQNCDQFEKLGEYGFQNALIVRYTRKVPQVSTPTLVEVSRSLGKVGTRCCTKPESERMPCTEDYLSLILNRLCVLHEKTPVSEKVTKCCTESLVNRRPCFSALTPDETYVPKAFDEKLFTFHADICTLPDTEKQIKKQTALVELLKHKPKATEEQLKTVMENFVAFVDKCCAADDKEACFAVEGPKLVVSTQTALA
Method: When experiments were performed at high dye concentrations, aggregation completely quenches the fluorescence signal, which can be restored through the addition of albumin.

## CC1(C)C(/C=C/C2=C(c3ccc(/C=N/Nc4ccc(C(=O)NCc5ccc(C6=NNC=C7CCC(OC(=O)NCCCC(O)(P(=O)(O)O)P(=O)(O)O)CCCC76)cc5)cn4)cc3)C(=C/C=C3\N(CCCCS(=O)(=O)[O-])c4ccccc4C3(C)C)/CCC2)=[N+](CCCCS(=O)(=O)O)c2ccccc21 (centres unmarked) [Compound 7]
[1]; ex vivo leg after 1 hour post-injection imaging
  uptake in the leg, images ex vivo: intense uptake
[1]
  photoacoustic signal in the knee (or shoulder) joints: significant signal

## CC1(C)C(/C=C/C=C/C=C/C=C2\N(CCCCS(=O)(=O)O)c3ccc4ccccc4c3C2(C)C)=[N+](CCCCS(=O)(=O)[O-])c2ccc3ccccc3c21 [ICG, indocyanine green]
[2]
  concentration that can be achieved: 1000 µg/mL

## CC1(C)C(/C=C/C2=C(c3ccc(/C=N/Nc4ccc(C(=O)NCc5ccc(C6=NNC=C7CCC(OC(=O)NCCCC8(O)P(=O)(O)[O][Tc]9([OH])([OH])([O]P(=O)(O)C(O)(CCCNC(=O)OC%10CC/C=C/CCC%10)P(=O)(O)[O]9)[O]P8(=O)O)CCCC76)cc5)cn4)cc3)C(=C/C=C3\N(CCCCS(=O)(=O)[O-])c4ccccc4C3(C)C)/CCC2)=[N+](CCCCS(=O)(=O)[O][Na])c2ccccc21 (centres unmarked) [Compound 9]
Plasma proteins; 0 h
  Pellet: 32.79
  Supernatant: 52.00
Plasma proteins; 0.5 h
  Pellet: 36.10
  Supernatant: 53.44
Plasma proteins; 1 h
  Pellet: 47.53
  Supernatant: 47.27
Plasma proteins; 2 h
  Pellet: 45.29
  Supernatant: 49.35
Plasma proteins; 3 h
  Pellet: 47.72
  Supernatant: 46.82
Plasma proteins; 4 h
  Pellet: 46.88
  Supernatant: 47.42
Plasma proteins; 6 h
  Pellet: 47.83
  Supernatant: 47.46
Plasma proteins; after 1 hour
  activity in the supernatant: 50%
  activity present in the pellet containing the proteins: 50%
[3]; 1 h
  blood level relative to [99mTc]Tc-TCO-BP alone: 20 ×
[3]; 1 h post injection
  activity in the blood: over 15 % ID g^−1
[3]; 6 h
  blood level relative to [99mTc]Tc-TCO-BP alone: 187 ×
[3]; determined using radioactive counting
  blood half-life: 3.2 h

## CC1(C)C(/C=C/C2=C(c3ccc(/C=N/Nc4ccc(C(=O)NCc5ccc(-c6nncnn6)cc5)cn4)cc3)C(=C/C=C3\N(CCCCS(=O)(=O)[O-])c4ccccc4C3(C)C)/CCC2)=[N+](CCCCS(=O)(=O)O)c2ccccc21 [Compound 5]
[4]
  increase in signal intensity in the tumor: 2.3 ×
[1]
  photoacoustic signal in the knee (or shoulder) joints: did not show any significant signal
[5]
  solubility: 5000 µg/mL (≈ 4.54 mM)
[6]; 24 h
  reactivity of the tetrazine towards TCO-derivatives after plasma incubation: remained reactive towards trans-cyclooctene (TCO)-derivatives
[6]; out to 24 h
  stability in plasma (degradation): no signs of degradation
[7]
  albumin binding: dye binding to a hydrophobic binding site of albumin
